Measurements: patent US8530489B2 (Vertex Pharmaceuticals Incorporated, priority 2006, dated 2013)

molecular target: PLK1 (Homo sapiens, UniProt P53350); test: PLK1 Inhibition Assay I (radioactive-phosphate incorporation); assay type: biochemical; details: Ki(app); PLK1 Inhibition Assay I or II (table does not say which)
Method: The compounds of the present invention are evaluated as inhibitors of human PLK kinase using the following assays.
Compounds were screened for their ability to inhibit PLK1 using a radioactive-phosphate incorporation assay. Assays were carried out in a mixture of 25 mM HEPES (pH 7.5), 10 mM MgCl2, and 1 mM DTT. Final substrate concentrations were 350 μM [γ-33P]ATP (136 mCi 33P ATP/mmol ATP, Amersham Pharmacia Biotech/Sigma Chemicals) and 450 μM peptide (KKKISDELMDATFADQEAK) [SEQ. ID:1]. Assays were carried out at 25° C. in the presence of 2 nM PLK1. An assay stock buffer solution was prepared containing all of the reagents listed above, with the exception of ATP and the test compound of interest. 30 μL of the stock solution was placed in a 96 well plate followed by addition of 2 μL of DMSO stock containing serial dilutions of the test compound (typically starting from a final concentration of 10 μM with 2-fold serial dilutions) in duplicate (final DMSO concentration 5%). The plate was pre-incubated for 10 minutes at 25° C. and the reaction initiated by addition of 8 μL [γ-33P]ATP (final concentration 350 μM).
The reaction was stopped after 240 minutes by the addition of 100 μL 0.14M phosphoric acid. A multiscreen phosphocellulose filter 96-well plate (Millipore, Cat No. MAPHN0B50) was pretreated with 100 μL 0.1 M phosphoric acid prior to the addition of 125 μL of the stopped assay mixture. The plate was washed with 4×200 μL 0.1 M phosphoric acid. After drying, 100 μL Optiphase ‘SuperMix’ liquid scintillation cocktail (Perkin Elmer) was added to the well prior to scintillation counting (1450 Microbeta Liquid Scintillation Counter, Wallac).
After removing mean background values for all of the data points, Ki(app) data were calculated from non-linear regression analysis of the initial rate data using the Prism software package (GraphPad Prism version 3.0cx for Macintosh, GraphPad Software, San Diego Calif., USA).

PLK1, sequence (P53350 whole entry): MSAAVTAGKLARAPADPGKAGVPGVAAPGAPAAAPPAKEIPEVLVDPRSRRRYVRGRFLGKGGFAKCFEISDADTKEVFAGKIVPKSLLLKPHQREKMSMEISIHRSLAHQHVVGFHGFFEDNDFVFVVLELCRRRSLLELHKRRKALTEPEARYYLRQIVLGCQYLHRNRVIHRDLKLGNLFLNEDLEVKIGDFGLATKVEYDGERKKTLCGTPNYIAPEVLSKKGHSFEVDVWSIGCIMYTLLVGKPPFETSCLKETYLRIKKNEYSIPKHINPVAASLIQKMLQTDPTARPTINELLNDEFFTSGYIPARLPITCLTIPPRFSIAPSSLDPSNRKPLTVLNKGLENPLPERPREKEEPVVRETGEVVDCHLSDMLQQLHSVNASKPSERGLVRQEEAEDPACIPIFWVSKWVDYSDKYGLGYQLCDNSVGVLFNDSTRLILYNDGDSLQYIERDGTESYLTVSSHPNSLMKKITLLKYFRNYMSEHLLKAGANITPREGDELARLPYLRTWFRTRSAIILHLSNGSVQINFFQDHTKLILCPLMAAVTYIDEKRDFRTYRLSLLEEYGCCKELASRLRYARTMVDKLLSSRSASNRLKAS

Ki | Structure (SMILES)
> 0.04 µM | COC[C@@H](Nc1ncc(C#N)c(-c2c[nH]c3ncc(C(F)(F)F)cc23)n1)c1ccccc1 [Compound I-43, 2-((S)-2-methoxy-1-phenylethylamino)-4-(5-(trifluoromethyl)-1H-pyrrolo[2,3-b]pyridin-3-yl)pyrimidine-5-carbonitrile]
> 0.04 µM | CC(C)C[C@H](CO)Nc1ncc(C#N)c(-c2c[nH]c3ncc(C(F)(F)F)cc23)n1 [Compound I-44, 2-((R)-1-hydroxy-4-methylpentan-2-ylamino)-4-(5-(trifluoromethyl)-1H-pyrrolo[2,3-b]pyridin-3-yl)pyrimidine-5-carbonitrile]
0.003 to 0.04 µM | C[C@@H](Nc1ncc(C#N)c(-c2c[nH]c3ncc(C(F)(F)F)cc23)n1)c1cccc(C(F)(F)F)c1 [Compound I-45, 4-(5-(trifluoromethyl)-1H-pyrrolo[2,3-b]pyridin-3-yl)-2-((R)-1-(3-(trifluoromethyl)phenyl)ethylamino)pyrimidine-5-carbonitrile]
> 0.04 µM | N#Cc1cnc(NCc2ccc(Oc3ccccc3)cc2)nc1-c1c[nH]c2ncc(C(F)(F)F)cc12 [Compound I-46, 2-(4-phenoxybenzylamino)-4-(5-(trifluoromethyl)-1H-pyrrolo[2,3-b]pyridin-3-yl)pyrimidine-5-carbonitrile]
< 0.003 µM | CC(C)[C@H](CO)Nc1ncc(C#N)c(-c2c[nH]c3ncc(C(F)(F)F)cc23)n1 [Compound I-47, 2-((R)-1-hydroxy-3-methylbutan-2-ylamino)-4-(5-(trifluoromethyl)-1H-pyrrolo[2,3-b]pyridin-3-yl)pyrimidine-5-carbonitrile]
> 0.04 µM | N#Cc1cnc(NCc2cc(F)cc(F)c2)nc1-c1c[nH]c2ncc(C(F)(F)F)cc12 [Compound I-48, 2-(3,5-difluorobenzylamino)-4-(5-(trifluoromethyl)-1H-pyrrolo[2,3-b]pyridin-3-yl)pyrimidine-5-carbonitrile]
0.003 to 0.04 µM | N#Cc1cnc(NCC2(O)CCCCC2)nc1-c1c[nH]c2ncc(C(F)(F)F)cc12 [Compound I-49, 2-((1-hydroxycyclohexyl)methylamino)-4-(5-(trifluoromethyl)-1H-pyrrolo[2,3-b]pyridin-3-yl)pyrimidine-5-carbonitrile]
> 0.04 µM | N#Cc1cnc(NCc2ccc(Cl)nc2)nc1-c1c[nH]c2ncc(C(F)(F)F)cc12 [Compound I-50, 2-((6-chloropyridin-3-yl)methylamino)-4-(5-(trifluoromethyl)-1H-pyrrolo[2,3-b]pyridin-3-yl)pyrimidine-5-carbonitrile]
< 0.003 µM | CC(Nc1ncc(C#N)c(-c2c[nH]c3ncc(C(F)(F)F)cc23)n1)c1cccnc1 (stereo not drawn) [Compound I-51, 2-(1-(pyridin-3-yl)ethylamino)-4-(5-(trifluoromethyl)-1H-pyrrolo[2,3-b]pyridin-3-yl)pyrimidine-5-carbonitrile]
< 0.003 µM | COc1ccc(C(C)Nc2ncc(C#N)c(-c3c[nH]c4ncc(C(F)(F)F)cc34)n2)cn1 (stereo not drawn) [Compound I-52, 2-(1-(6-methoxypyridin-3-yl)ethylamino)-4-(5-(trifluoromethyl)-1H-pyrrolo[2,3-b]pyridin-3-yl)pyrimidine-5-carbonitrile]
> 0.04 µM | N#Cc1cnc(NCc2ccc(-c3cccs3)cc2)nc1-c1c[nH]c2ncc(C(F)(F)F)cc12 [Compound I-54, 2-(4-(thiophen-2-yl)benzylamino)-4-(5-(trifluoromethyl)-1H-pyrrolo[2,3-b]pyridin-3-yl)pyrimidine-5-carbonitrile]
0.003 to 0.04 µM | N#Cc1cnc(NCc2ccc(-n3cncn3)cc2)nc1-c1c[nH]c2ncc(C(F)(F)F)cc12 [Compound I-55, 2-(4-(1H-1,2,4-triazol-1-yl)benzylamino)-4-(5-(trifluoromethyl)-1H-pyrrolo[2,3-b]pyridin-3-yl)pyrimidine-5-carbonitrile]
0.003 to 0.04 µM | N#Cc1cnc(NCc2ccc3c(c2)OCO3)nc1-c1c[nH]c2ncc(C(F)(F)F)cc12 [Compound I-56]
0.003 to 0.04 µM | N#Cc1cnc(NCC2CCOCC2)nc1-c1c[nH]c2ncc(C(F)(F)F)cc12 [Compound I-57, 2-((tetrahydro-2H-pyran-4-yl)methylamino)-4-(5-(trifluoromethyl)-1H-pyrrolo[2,3-b]pyridin-3-yl)pyrimidine-5-carbonitrile]
0.003 to 0.04 µM | CC(C)[C@@H](CO)Nc1ncc(C#N)c(-c2c[nH]c3ncc(C(F)(F)F)cc23)n1 [Compound I-58, 2-((S)-1-hydroxy-3-methylbutan-2-ylamino)-4-(5-(trifluoromethyl)-1H-pyrrolo[2,3-b]pyridin-3-yl)pyrimidine-5-carbonitrile]
0.003 to 0.04 µM | CN(C)c1ccc(CNc2ncc(C#N)c(-c3c[nH]c4ncc(C(F)(F)F)cc34)n2)cc1 [Compound I-59, 2-(4-(dimethylamino)benzylamino)-4-(5-(trifluoromethyl)-1H-pyrrolo[2,3-b]pyridin-3-yl)pyrimidine-5-carbonitrile]
0.003 to 0.04 µM | Cc1ccc(C)c(CNc2ncc(C#N)c(-c3c[nH]c4ncc(C(F)(F)F)cc34)n2)c1 [Compound I-60, 2-(2,5-dimethylbenzylamino)-4-(5-(trifluoromethyl)-1H-pyrrolo[2,3-b]pyridin-3-yl)pyrimidine-5-carbonitrile]
< 0.003 µM | C[C@@H](Nc1ncc(C#N)c(-c2c[nH]c3ncc(C(F)(F)F)cc23)n1)C1CCCCC1 [Compound I-61, 2-((R)-1-cyclohexylethylamino)-4-(5-(trifluoromethyl)-1H-pyrrolo[2,3-b]pyridin-3-yl)pyrimidine-5-carbonitrile]
0.003 to 0.04 µM | N#Cc1cnc(NCc2ccc3c(c2)CCO3)nc1-c1c[nH]c2ncc(C(F)(F)F)cc12 [Compound I-62, 2-((2,3-dihydrobenzofuran-5-yl)methylamino)-4-(5-(trifluoromethyl)-1H-pyrrolo[2,3-b]pyridin-3-yl)pyrimidine-5-carbonitrile]
0.003 to 0.04 µM | CN1CCC(Nc2ncc(C#N)c(-c3c[nH]c4ncc(C(F)(F)F)cc34)n2)CC1 [Compound I-63, 2-(1-methylpiperidin-4-ylamino)-4-(5-(trifluoromethyl)-1H-pyrrolo[2,3-b]pyridin-3-yl)pyrimidine-5-carbonitrile]
> 0.04 µM | N#Cc1cnc(NCc2ccccn2)nc1-c1c[nH]c2ncc(C(F)(F)F)cc12 [Compound I-64, 2-(pyridin-2-ylmethylamino)-4-(5-(trifluoromethyl)-1H-pyrrolo[2,3-b]pyridin-3-yl)pyrimidine-5-carbonitrile]
0.003 to 0.04 µM | N#Cc1cnc(N[C@@H]2CC3CC[C@@H]2C3)nc1-c1c[nH]c2ncc(C(F)(F)F)cc12 [Compound I-65, 2-((1R,2R)-bicyclo[2.2.1]heptan-2-ylamino)-4-(5-(trifluoromethyl)-1H-pyrrolo[2,3-b]pyridin-3-yl)pyrimidine-5-carbonitrile]
> 0.04 µM | CCNc1ncc(C#N)c(-c2c[nH]c3ncc(C(F)(F)F)cc23)n1 [Compound I-66, 2-(ethylamino)-4-(5-(trifluoromethyl)-1H-pyrrolo[2,3-b]pyridin-3-yl)pyrimidine-5-carbonitrile]
> 0.04 µM | N#Cc1cnc(NCCC2CCCCN2)nc1-c1c[nH]c2ncc(C(F)(F)F)cc12 (stereo not drawn) [Compound I-68, 2-(2-(piperidin-2-yl)ethylamino)-4-(5-(trifluoromethyl)-1H-pyrrolo[2,3-b]pyridin-3-yl)pyrimidine-5-carbonitrile]
> 0.04 µM | N#Cc1cnc(NCCN2CCOCC2)nc1-c1c[nH]c2ncc(C(F)(F)F)cc12 [Compound I-69, 2-(2-morpholinoethylamino)-4-(5-(trifluoromethyl)-1H-pyrrolo[2,3-b]pyridin-3-yl)pyrimidine-5-carbonitrile]
> 0.04 µM | N#Cc1cnc(NCCCN2CCOCC2)nc1-c1c[nH]c2ncc(C(F)(F)F)cc12 [Compound I-70, 2-(3-morpholinopropylamino)-4-(5-(trifluoromethyl)-1H-pyrrolo[2,3-b]pyridin-3-yl)pyrimidine-5-carbonitrile]
> 0.04 µM | N#CCNc1ncc(C#N)c(-c2c[nH]c3ncc(C(F)(F)F)cc23)n1 [Compound I-71, 2-(cyanomethylamino)-4-(5-(trifluoromethyl)-1H-pyrrolo[2,3-b]pyridin-3-yl)pyrimidine-5-carbonitrile]
0.003 to 0.04 µM | CC(=O)Nc1ccc(CNc2ncc(C#N)c(-c3c[nH]c4ncc(C(F)(F)F)cc34)n2)cc1 [Compound I-72, N-(4-((5-cyano-4-(5-(trifluoromethyl)-1H-pyrrolo[2,3-b]pyridin-3-yl)pyrimidin-2-ylamino)methyl)phenyl)acetamide]
0.003 to 0.04 µM | N#Cc1cnc(NC2CCCC2)nc1-c1c[nH]c2ncc(C(F)(F)F)cc12 [Compound I-73, 2-(cyclopentylamino)-4-(5-(trifluoromethyl)-1H-pyrrolo[2,3-b]pyridin-3-yl)pyrimidine-5-carbonitrile]
0.003 to 0.04 µM | N#Cc1cnc(NC2CCOCC2)nc1-c1c[nH]c2ncc(C(F)(F)F)cc12 [Compound I-74, 2-(tetrahydro-2H-pyran-4-ylamino)-4-(5-(trifluoromethyl)-1H-pyrrolo[2,3-b]pyridin-3-yl)pyrimidine-5-carbonitrile]
